Test results as given in patent US20240239792A1, “MODULATORS OF BCL-2 OR BCL-2/BCL-XL AND USES THEREOF” (APPICINE THERAPEUTICS (HK) LIMITED, priority 2021, published 2024).
pIC50: −log10 of the molar value.

Experiments:
BCL-XL = target: T1, BCL-XL (Homo sapiens, UniProt Q07817); experiment: HTRF BCL-XL/BAK assay (Cisbio); type: binding; conditions: recombinant human Tag1-BCL-XL 2 nM, Tag2-BAK 5 nM
T1 construct: purchased Cisbio 63ADK000CB04PEG
Procedure: (§1) Then the pre-mixed anti-Tag1-Eu^3+ and anti-tag2-XL665 were added to the plate and further incubated at room temperature for another 2 hours. The signals ([…]) were read on Envision 2104 instrument. The IC50 for each compound was derived from fitting the signal of 665/615 nM to the increasing compound concentration.
(§2) Using the above assays, the following compounds were tested.

BCL-2 = target: T2, BCL-2 (Homo sapiens, UniProt P10415); experiment: HTRF BCL-2/BAK assay (Cisbio); type: binding; conditions: recombinant human Tag1-BCL-2 2 nM, Tag2-BAK 10 nM
T2 construct: purchased Cisbio 63ADK000CB01PEG
Procedure: as §1, §2

DOHH2 cells = experiment: CellTiter-Glo cell proliferation assay, DOHH2 cells; type: cell-based; conditions: Homo sapiens, DOHH-2, 72 hours
Procedure: The CellTiter-Glo® Luminescent Cell Viability Assay (Promega, G7573) was used to study the cellular potency of disclosed compounds herein. The cells were harvested during the logarithmic growth period and counted with hemocytometer. The DOHH2 cells were seeded at 1.6*10^4 in 90 ul DMEM medium supplemented with 10% fetal bovine serum (FBS) (as RS4;11 cells were seeded at 4000 in 90 ul RPMI-1640 medium with 10% FBS) per well in 96-well plates and treated with 10 ul of a serial dilution of compounds disclosed herein (maximum concentration and dilution ratio determined by the results of pre-experiment may vary) for 72 hours in a 5% CO2 incubator at 37° C. Cell viability was assessed according to the manufacturer's recommendations. After the plates return to the room temperature, 100 ul of CellTiter-Glo® reagent was added to 100 ul of cell culture. The mixture was agitated on an orbital shaker for 2 minutes or placed it at room temperature for 10 minutes to allow cell lysis and stabilization of luminescent signals. Luminescent signals were recorded using Envision 2104 instrument. And GI50 values were then calculated.

T2 sequence (P10415 whole entry): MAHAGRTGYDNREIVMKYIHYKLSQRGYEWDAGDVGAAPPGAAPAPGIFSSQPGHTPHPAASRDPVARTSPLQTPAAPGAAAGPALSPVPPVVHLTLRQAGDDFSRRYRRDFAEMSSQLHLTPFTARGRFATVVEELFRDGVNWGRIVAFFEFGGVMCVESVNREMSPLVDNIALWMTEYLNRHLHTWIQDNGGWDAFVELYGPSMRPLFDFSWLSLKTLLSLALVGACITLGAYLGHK
T1 sequence (Q07817 whole entry): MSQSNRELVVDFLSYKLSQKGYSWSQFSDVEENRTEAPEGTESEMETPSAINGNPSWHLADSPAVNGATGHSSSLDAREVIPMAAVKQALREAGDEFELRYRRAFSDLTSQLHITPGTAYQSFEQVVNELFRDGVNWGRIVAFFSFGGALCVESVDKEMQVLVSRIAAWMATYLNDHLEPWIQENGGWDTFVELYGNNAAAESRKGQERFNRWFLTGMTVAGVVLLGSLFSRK

Row | SMILES | pIC50 (BCL-XL) | pIC50 (BCL-2) | GI50 (DOHH2 cells) [nM]
1 | CC(=O)N1CCC2(CC1)CC(CNc1ccc(S(=O)(=O)NC(=O)c3ccc(N4CCN([C@@H]5CCCCc6c(Cl)cccc65)CC4)cc3)cc1[N+](=O)[O-])C2 [Compound 118, (R)-N-((4-(((7-acetyl-7-azaspiro[3.5]nonan-2-yl)methyl)amino)-3-nitrophenyl)sulfonyl)-4-(4-(1-chloro-6,7,8,9-tetrahydro-5H-benzo[7]annulen-5-yl)piperazin-1-yl)benzamide] | < 5.70 | 5.70 to 6.70 | –
2 | CC1(C)COCCC1CNc1ccc(S(=O)(=O)NC(=O)c2ccc(N3CCN([C@@H]4CCCCc5c(Cl)cccc54)CC3)cc2Oc2cnc3[nH]ccc3c2)cc1[N+](=O)[O-] (stereo partly drawn) [Compound 101, 2-((1H-pyrrolo[2,3-b]pyridin-5-yl)oxy)-4-(4-((R)-1-chloro-6,7,8,9-tetrahydro-5H-benzo[7]annulen-5-yl)piperazin-1-yl)-N-((4-(((3,3-dimethyltetrahydro-2H-pyran-4-yl)methyl)amino)-3-nitrophenyl)sulfonyl)benzamide] | 6.70 to 7.70 | > 7.70 | < 50
3 | C=C(C)c1cccc2c1CCCCC2N1CCN(c2ccc(C(=O)NS(=O)(=O)c3ccc(NCC4CCOCC4)c([N+](=O)[O-])c3)c(Oc3cnc4[nH]ccc4c3)c2)CC1 (centres unmarked) [Compound 50, 2-((1H-pyrrolo[2,3-b]pyridin-5-yl)oxy)-N-((3-nitro-4-(((tetrahydro-2H-pyran-4-yl)methyl)amino)phenyl)sulfonyl)-4-(4-(1-(prop-1-en-2-yl)-6,7,8,9-tetrahydro-5H-benzo[7]annulen-5-yl)piperazin-1-yl)benzamide] | 5.70 to 6.70 | > 7.70 | 50 to 500
4 | CC(C)(C)OC(=O)NCCN1CCC2(CC1)CC(CNc1ccc(S(=O)(=O)NC(=O)c3ccc(N4CCN([C@@H]5CCCCc6c(Cl)cccc65)CC4)cc3Oc3cnc4[nH]ccc4c3)cc1[N+](=O)[O-])C2 [Compound 109, tert-butyl (R)-(2-(2-(((4-(N-(2-((1H-pyrrolo[2,3-b]pyridin-5-yl)oxy)-4-(4-(1-chloro-6,7,8,9-tetrahydro-5H-benzo[7]annulen-5-yl)piperazin-1-yl)benzoyl)sulfamoyl)-2-nitrophenyl)amino)methyl)-7-azaspiro[3.5]nonan-7-yl)ethyl)carbamate] | 6.70 to 7.70 | > 7.70 | < 50
5 | O=C1CCC(N2CCN(c3ccc(C(=O)NS(=O)(=O)c4ccc(NCC5CCOCC5)c([N+](=O)[O-])c4)c(Oc4cnc5[nH]ccc5c4)c3)CC2)c2ccccc2N1 (centres unmarked) [Compound 28, 2-((1H-pyrrolo[2,3-b]pyridin-5-yl)oxy)-N-((3-nitro-4-(((tetrahydro-2H-pyran-4-yl)methyl)amino)phenyl)sulfonyl)-4-(4-(2-oxo-2,3,4,5-tetrahydro-1H-benzo[b]azepin-5-yl)piperazin-1-yl)benzamide] | < 5.70 | 6.70 to 7.70 | > 5000
6 | CN1CCN(CCNc2ccc(S(=O)(=O)NC(=O)c3ccc(N4CCN(C5CCCCc6c(Cl)cccc65)CC4)cc3Oc3cnc4[nH]ccc4c3)cc2[N+](=O)[O-])CC1 (centres unmarked) [Compound 32, 2-((1H-pyrrolo[2,3-b]pyridin-5-yl)oxy)-4-(4-(1-chloro-6,7,8,9-tetrahydro-5H-benzo[7]annulen-5-yl)piperazin-1-yl)-N-((4-((2-(4-methylpiperazin-1-yl)ethyl)amino)-3-nitrophenyl)sulfonyl)benzamide] | > 7.70 | > 7.70 | < 50
7 | O=C(NS(=O)(=O)c1ccc(NCC2CCOCC2)c([N+](=O)[O-])c1)c1ccc(N2CCN(C3CCCCc4ccccc43)CC2)cc1Oc1cnc2[nH]ccc2c1 (centres unmarked) [Compound 6, 2-((1H-pyrrolo[2,3-b]pyridin-5-yl)oxy)-N-((3-nitro-4-(((tetrahydro-2H-pyran-4-yl)methyl)amino)phenyl)sulfonyl)-4-(4-(6,7,8,9-tetrahydro-5H-benzo[7]annulen-5-yl)piperazin-1-yl)benzamide] | – | > 7.70 | 50 to 500
8 | O=C(NS(=O)(=O)c1ccc(NCC2CCOCC2)c([N+](=O)[O-])c1)c1ccc(N2CCN(C3CCCc4ccccc43)CC2)cc1Oc1cnc2[nH]ccc2c1 (centres unmarked) [Compound 2, 2-((1H-pyrrolo[2,3-b]pyridin-5-yl)oxy)-N-((3-nitro-4-(((tetrahydro-2H-pyran-4-yl)methyl)amino)phenyl)sulfonyl)-4-(4-(1,2,3,4-tetrahydronaphthalen-1-yl)piperazin-1-yl)benzamide] | – | 6.70 to 7.70 | > 5000

The next lines start with results.

Row | pIC50 (BCL-XL) | pIC50 (BCL-2) | SMILES | GI50 (DOHH2 cells) [nM]
9 | 6.70 to 7.70 | > 7.70 | CC1(C)CC(CNc2ccc(S(=O)(=O)NC(=O)c3ccc(N4CCN([C@@H]5CCCCc6c(Cl)cccc65)CC4)cc3Oc3cnc4[nH]ccc4c3)cc2[N+](=O)[O-])CCO1 (stereo partly drawn) [Compound 102, 2-((1H-pyrrolo[2,3-b]pyridin-5-yl)oxy)-4-(4-((R)-1-chloro-6,7,8,9-tetrahydro-5H-benzo[7]annulen-5-yl)piperazin-1-yl)-N-((4-(((2,2-dimethyltetrahydro-2H-pyran-4-yl)methyl)amino)-3-nitrophenyl)sulfonyl)benzamide] | < 50
10 | < 5.70 | < 5.70 | CC(C)(C)OC(=O)N1CCC2(CC1)CC(CNc1ccc(S(=O)(=O)NC(=O)c3ccc(N4CCN([C@@H]5CCCCc6c(Cl)cccc65)CC4)cc3)cc1[N+](=O)[O-])C2 [Compound 116, tert-butyl (R)-2-(((4-(N-(4-(4-(1-chloro-6,7,8,9-tetrahydro-5H-benzo[7]annulen-5-yl)piperazin-1-yl)benzoyl)sulfamoyl)-2-nitrophenyl)amino)methyl)-7-azaspiro[3.5]nonane-7-carboxylate] | –
11 | – | > 7.70 | Cc1nnc2n1CC(CNc1ccc(S(=O)(=O)NC(=O)c3ccc(N4CCN(C5CCCCc6c(Cl)cccc65)CC4)cc3Oc3cnc4[nH]ccc4c3)cc1[N+](=O)[O-])CC2 (centres unmarked) [Compound 57, 2-((1H-pyrrolo[2,3-b]pyridin-5-yl)oxy)-4-(4-(1-chloro-6,7,8,9-tetrahydro-5H-benzo[7]annulen-5-yl)piperazin-1-yl)-N-((4-(((3-methyl-5,6,7,8-tetrahydro-[1,2,4]triazolo[4,3-a]pyridin-6-yl)methyl)amino)-3-nitrophenyl)sulfonyl)benzamide] | 500 to 5000
12 | – | 6.70 to 7.70 | O=C(NS(=O)(=O)c1ccc(NCC2CCOCC2)c([N+](=O)[O-])c1)c1ccc(N2CCN(C3CCCCc4ccc(-c5ccccc5)cc43)CC2)cc1Oc1cnc2[nH]ccc2c1 (centres unmarked) [Compound 22, 2-((1H-pyrrolo[2,3-b]pyridin-5-yl)oxy)-N-((3-nitro-4-(((tetrahydro-2H-pyran-4-yl)methyl)amino)phenyl)sulfonyl)-4-(4-(3-phenyl-6,7,8,9-tetrahydro-5H-benzo[7]annulen-5-yl)piperazin-1-yl)benzamide] | 500 to 5000
13 | – | > 7.70 | O=C(NS(=O)(=O)c1ccc(NCC2CC3(CCN(S(=O)(=O)C4CC4)CC3)C2)c([N+](=O)[O-])c1)c1ccc(N2CCN([C@@H]3CCCCc4c(Cl)cccc43)CC2)cc1Oc1cnc2[nH]ccc2c1 [Compound 127, (R)-2-((1H-pyrrolo[2,3-b]pyridin-5-yl)oxy)-4-(4-(1-chloro-6,7,8,9-tetrahydro-5H-benzo[7]annulen-5-y1)piperazin-1-yl)-N-((4-(((7-(cyclopropylsulfonyl)-7-azaspiro[3.5]nonan-2-yl)methyl)amino)-3-nitrophenyl)sulfonyl)benzamide] | < 50
